Test results from ChEMBL document CHEMBL1132426, “Inhibitors of the C(2)-symmetric HIV-1 protease: nonsymmetric binding of a symmetric cyclic sulfamide with ketoxime groups in the P2/P2' side chains” (J Med Chem, 1999).

Biological target: Human immunodeficiency virus type 1 protease (Human immunodeficiency virus 1, UniProt Q72874)
Experiment: Inhibitory activity against HIV-1 Protease expressed in Escherichia coli

SMILES	Ki [µM]
COC(Cc1cccc(CN2[C@H](COc3ccccc3)[C@H](O)[C@@H](O)[C@@H](COc3ccccc3)N(Cc3cccc(CC(OC)OC)c3)S2(=O)=O)c1)OC	0.54
C/C(=N/O)c1cccc(CN2[C@H](COc3ccccc3)[C@H](O)[C@@H](O)[C@@H](COc3ccccc3)N(Cc3cccc(/C(C)=N\O)c3)S2(=O)=O)c1	0.0034
COC(=O)c1ccc(CN2[C@H](COc3ccccc3)[C@H](O)[C@@H](O)[C@@H](COc3ccccc3)N(Cc3ccc(C(=O)OC)cc3)S2(=O)=O)cc1	0.084
O=S1(=O)N(Cc2cccc(CCO)c2)[C@H](COc2ccccc2)[C@H](O)[C@@H](O)[C@@H](COc2ccccc2)N1Cc1cccc(CCO)c1	0.043
O=S1(=O)N(Cc2ccc(CO)cc2)[C@H](COc2ccccc2)[C@H](O)[C@@H](O)[C@@H](COc2ccccc2)N1Cc1ccc(CO)cc1	0.0031
CC(=O)c1cccc(CN2[C@H](COc3ccccc3)[C@H](O)[C@@H](O)[C@@H](COc3ccccc3)N(Cc3cccc(C(C)=O)c3)S2(=O)=O)c1	0.059
